Test results as given in patent US5578324A, “Peptide proteinaceous drug nasal powder composition” (Teijin Limited, priority 1993, dated 1996).
Structures can show the parent of a compound that is named as a salt. Where a SMILES comes first, the peptide text is derived from it. [ ]: non-standard residue; d: D form. The star is where a group is joined. Sta = CC(C)C[C@H](N)[C@@H](O)CC(=O)O; Isovaleryl = CC(C)CC(=O)*

Key:
[1] = test system: Human Nasal Mucosal Homogenate; assay: Inhibitory effect on degradation of peptide proteinaceous drug in human nasal mucosal homogenate; format: biochemical; parameters: concentration or dose not given beside the values; conditions: 37° C., HPLC; for Inhibitor (%) ACTH: degradation of adrenocorticotropic hormone (ACTH); for Inhibitor (%) CGRP: degradation of calcitonin gene related peptide (CGRP); for Inhibitor (%) GLU: degradation of glucagon (GLU); for Inhibitor (%) GHRH: degradation of growth hormone releasing hormone (GHRH); for Inhibitor (%) INS: degradation of insulin (INS); for Inhibitor (%) LHRH: degradation of luteinizing hormone releasing hormone (LHRH); for Inhibitor (%) PTH: degradation of parathyroid hormone (PTH); for Inhibitor (%) PDGF: degradation of platelet-derived growth factor (PDGF); for Inhibitor (%) SCT: degradation of salmon calcitonin (SCT); for Inhibitor (%) GIF: degradation of somatostatin (GIF); for Inhibitor (%) S.p: degradation of substance P (S.p)
Procedure: A homogenate solution was prepared from human nasal mucosa to give 1 mg/ml of protein. […] The amounts of the peptide proteinaceous drug not yet cleaved after a predetermined time were measured by HPLC to find the amounts of decomposition. The inhibition rates were calculated by the following formula.
Inhibition rate (%)=(A-B)/A×100
A: Amount of peptide proteinaceous drug cleaved when enzyme inhibitor or absorption accelerant of present invention is not added to homogenate
B: Amount of peptide proteinaceous drug cleaved when enzyme inhibitor or absorption accelerant of present invention is added to homogenate

trypsin = biological target: T1, trypsin (Bos taurus, UniProt P00760); assay: Trypsin inhibiting activity; format: biochemical
T1 construct: gene PRSS1
T1 sequence (P00760 24-246): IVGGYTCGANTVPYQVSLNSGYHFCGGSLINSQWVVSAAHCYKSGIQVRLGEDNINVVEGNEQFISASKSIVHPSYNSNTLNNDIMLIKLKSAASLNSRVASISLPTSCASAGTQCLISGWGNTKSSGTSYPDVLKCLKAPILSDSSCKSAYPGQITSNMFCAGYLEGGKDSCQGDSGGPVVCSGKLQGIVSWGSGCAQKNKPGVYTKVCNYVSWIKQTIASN

[2] = Promotion of nasal absorption of peptide proteinaceous drug; conditions: in vivo
[3] = test system: Human Nasal Mucosal Homogenate; assay: Activity of protease in human nasal mucosal homogenate (cleavage of synthesized substrates); format: biochemical; conditions: substrate 0.1 mM, 37° C., amount of substrate cleaved by HPLC
Procedure: A homogenate solution was prepared from human nasal mucosa to give 1 mg/ml of protein. Next, synthesis substrates corresponding to the various proteases shown in Table 1 were added to 0.5 ml portions of the homogenate solution to give 0.1 mM concentrations. The results were incubated at 37° C. The amounts of the substrates remaining after a predetermined time were measured by HPLC to find the amounts of substrates cleaved and find the activity of the various proteases.

## NCc1ccccc1 [Benzylamine]
[1]
  Inhibitor (%) ACTH: 80%
  Inhibitor (%) CGRP: 76%
  Inhibitor (%) GLU: 48%
  Inhibitor (%) GHRH: 68%
  Inhibitor (%) INS: 68%
  Inhibitor (%) LHRH: 49%
  Inhibitor (%) PTH: 80%
  Inhibitor (%) PDGF: 52%
  Inhibitor (%) SCT: 70%
  Inhibitor (%) GIF: 78%
  Inhibitor (%) S.p: 54%

## NC[C@H]1CC[C@H](C(=O)Oc2ccc(CCC(=O)O)cc2)CC1 [Cetraxate hydrochloride, trans-(4-aminomethyl) cyclohexane carboxylic acid p-(2-carboxyethyl)phenyl ester]
[1]
  Inhibitor (%) ACTH: 70%
  Inhibitor (%) CGRP: 70%
  Inhibitor (%) GLU: 54%
  Inhibitor (%) GHRH: 70%
  Inhibitor (%) INS: 80%
  Inhibitor (%) LHRH: 48%
  Inhibitor (%) PTH: 75%
  Inhibitor (%) PDGF: 58%
  Inhibitor (%) GIF: 80%
  Inhibitor (%) S.p: 54%
trypsin
  trypsin inhibiting activity: no trypsin inhibiting activity

## CC(C)C[C@H](NC(=O)[C@@H](NC(=O)N[C@@H](Cc1ccccc1)C(=O)O)[C@@H]1CCN=C(N)N1)C(=O)N[C@H](C=O)Cc1ccccc1 [Chymostatin]
[1]
  Inhibitor (%) ACTH: 12%
  Inhibitor (%) CGRP: 23%
  Inhibitor (%) GLU: 35%
  Inhibitor (%) GHRH: 25%
  Inhibitor (%) INS: 22%
  Inhibitor (%) LHRH: 16%
  Inhibitor (%) PTH: 15%
  Inhibitor (%) PDGF: 10%
  Inhibitor (%) SCT: 38%
  Inhibitor (%) GIF: 25%
  Inhibitor (%) S.p: 15%

## NCCc1ccc(O)c(O)c1 [Dopamine hydrochloride, 4-(2-aminoethyl)-1,2 benzenediol]
[1]
  Inhibitor (%) ACTH: 77%
  Inhibitor (%) CGRP: 72%
  Inhibitor (%) GLU: 50%
  Inhibitor (%) GHRH: 50%
  Inhibitor (%) INS: 52%
  Inhibitor (%) LHRH: 29%
  Inhibitor (%) PTH: 70%
  Inhibitor (%) PDGF: 55%
  Inhibitor (%) SCT: 64%
  Inhibitor (%) GIF: 72%
  Inhibitor (%) S.p: 60%
trypsin
  trypsin inhibiting activity: no trypsin inhibiting activity

## CCOC(=O)c1ccc(OC(=O)CCCCCNC(=N)N)cc1 [Gabexate]
[1]
  Inhibitor (%) ACTH: 48%
  Inhibitor (%) CGRP: 49%
  Inhibitor (%) GLU: 56%
  Inhibitor (%) GHRH: 40%
  Inhibitor (%) INS: 46%
  Inhibitor (%) LHRH: 27%
  Inhibitor (%) PTH: 44%
  Inhibitor (%) PDGF: 43%
  Inhibitor (%) SCT: 53%
  Inhibitor (%) GIF: 56%
  Inhibitor (%) S.p: 40%

## NCc1ccc(S(N)(=O)=O)cc1 [Mafenide acetate, 4-(aminomethyl) benzenesulfamine]
[1]
  Inhibitor (%) ACTH: 78%
  Inhibitor (%) CGRP: 70%
  Inhibitor (%) GLU: 56%
  Inhibitor (%) GHRH: 66%
  Inhibitor (%) INS: 52%
  Inhibitor (%) LHRH: 32%
  Inhibitor (%) PTH: 75%
  Inhibitor (%) PDGF: 59%
  Inhibitor (%) SCT: 67%
  Inhibitor (%) GIF: 74%
  Inhibitor (%) S.p: 55%
trypsin
  trypsin inhibiting activity: no trypsin inhibiting activity

## CC(C)CC(=O)N[C@H](C(=O)N[C@H](C(=O)N[C@@H](CC(C)C)[C@@H](O)CC(=O)N[C@@H](C)C(=O)N[C@@H](CC(C)C)[C@@H](O)CC(=O)O)C(C)C)C(C)C [Pepstatin] (Isovaleryl-VV[Sta]A[Sta]-OH)
[1]
  Inhibitor (%) ACTH: 4%
  Inhibitor (%) CGRP: 10%
  Inhibitor (%) GLU: 8%
  Inhibitor (%) GHRH: 0%
  Inhibitor (%) INS: 15%
  Inhibitor (%) LHRH: 0%
  Inhibitor (%) PTH: 10%
  Inhibitor (%) PDGF: 0%
  Inhibitor (%) SCT: 10%
  Inhibitor (%) GIF: 0%
  Inhibitor (%) S.p: 0%

## NC[C@H]1CC[C@H](C(=O)c2ccc(CCC(=O)O)cc2)CC1 [Rotraxate hydrochloride, 3-((p-(trans-4-aminomethylcyclohexylcarbonyl)phenyl)) propionic acid]
[1]
  Inhibitor (%) ACTH: 74%
  Inhibitor (%) CGRP: 75%
  Inhibitor (%) GLU: 62%
  Inhibitor (%) GHRH: 75%
  Inhibitor (%) INS: 84%
  Inhibitor (%) LHRH: 56%
  Inhibitor (%) PTH: 76%
  Inhibitor (%) PDGF: 59%
  Inhibitor (%) SCT: 80%
  Inhibitor (%) GIF: 86%
  Inhibitor (%) S.p: 53%
trypsin
  trypsin inhibiting activity: no trypsin inhibiting activity

## Cc1ccc(S(=O)(=O)N[C@@H](Cc2ccccc2)C(=O)CCl)cc1 [TPCK]
[1]
  Inhibitor (%) ACTH: 8%
  Inhibitor (%) CGRP: 0%
  Inhibitor (%) GLU: 5%
  Inhibitor (%) GHRH: 0%
  Inhibitor (%) INS: 7%
  Inhibitor (%) LHRH: 5%
  Inhibitor (%) PTH: 10%
  Inhibitor (%) PDGF: 3%
  Inhibitor (%) SCT: 0%
  Inhibitor (%) GIF: 11%
  Inhibitor (%) S.p: 10%

## O=C(O)CNC(=O)C(CS)Cc1ccccc1 (stereo not shown) [Thiorphan]
[1]
  Inhibitor (%) ACTH: 0%
  Inhibitor (%) CGRP: 0%
  Inhibitor (%) GLU: 0%
  Inhibitor (%) GHRH: 0%
  Inhibitor (%) INS: 0%
  Inhibitor (%) LHRH: 0%
  Inhibitor (%) PTH: 0%
  Inhibitor (%) PDGF: 0%
  Inhibitor (%) SCT: 0%
  Inhibitor (%) S.p: 0%

## NC[C@H]1CC[C@H](C(=O)O)CC1 [Tranexamic acid, trans-4-(aminomethyl) cyclohexane carboxylic acid]
[1]
  Inhibitor (%) ACTH: 80%
  Inhibitor (%) CGRP: 75%
  Inhibitor (%) GLU: 68%
  Inhibitor (%) GHRH: 75%
  Inhibitor (%) INS: 79%
  Inhibitor (%) LHRH: 58%
  Inhibitor (%) PTH: 78%
  Inhibitor (%) PDGF: 68%
  Inhibitor (%) SCT: 73%
  Inhibitor (%) GIF: 80%
  Inhibitor (%) S.p: 65%
trypsin
  trypsin inhibiting activity: no trypsin inhibiting activity

## NCc1ccc(C(=O)O)cc1 [p-Aminomethyl benzoic acid]
[1]
  Inhibitor (%) ACTH: 84%
  Inhibitor (%) CGRP: 72%
  Inhibitor (%) GLU: 60%
  Inhibitor (%) GHRH: 70%
  Inhibitor (%) INS: 74%
  Inhibitor (%) LHRH: 54%
  Inhibitor (%) PTH: 80%
  Inhibitor (%) PDGF: 65%
  Inhibitor (%) SCT: 76%
  Inhibitor (%) GIF: 85%
  Inhibitor (%) S.p: 58%

## NCCCCCC(=O)O [ε-ACA, ε-Amino caproic acid]
[2]
  effect of promoting nasal absorption: no effect of promoting nasal absorption was observed
[1]
  Inhibitor (%) ACTH: 0%
  Inhibitor (%) CGRP: 0%
  Inhibitor (%) GLU: 0%
  Inhibitor (%) GHRH: 0%
  Inhibitor (%) INS: 0%
  Inhibitor (%) LHRH: 0%
  Inhibitor (%) PTH: 0%
  Inhibitor (%) PDGF: 0%
  Inhibitor (%) SCT: 0%
  Inhibitor (%) GIF: 0%
  Inhibitor (%) S.p: 0%

## Bz--Arg--MCA
[3]
  Activity (nM/h/mg protein): 1 nM/h/mg protein
